Test results as given in the supplement of paper PMC10307832.

Key:
Assay in all cases: relative viability (nuclei count vs DMSO), 5 days (fraction); higher = more cells survive
MLN4924 + Crizotinib = compound: NS(=O)(=O)OC[C@@H]1C[C@@H](n2ccc3c(N[C@H]4CCc5ccccc54)ncnc32)C[C@@H]1O [MLN4924] + C[C@@H](Oc1cc(-c2cnn(C3CCNCC3)c2)cnc1N)c1c(Cl)ccc(F)c1Cl [Crizotinib] (partner 1 µM)
Method in brief: (§1)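 Lung cancer cell lines, seeded in 1536-well plates, were treated the following day by pin tool with a single drug or with five library-drug doses (not always all listed) in √10 steps on top of a fixed anchor-drug dose. Cells were fixed and nuclei stained in one step after 5 days, and nuclei were counted. Relative viability is the nuclei count for treated wells divided by that for vehicle wells, reported as medians of duplicate plates.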

Carboplatin + Olaparib = compound: C1CC(C1)(C(=O)O)C(=O)O.[NH2-].[NH2-].[Pt+2] [Carboplatin] + O=C(c1cc(Cc2n[nH]c(=O)c3ccccc23)ccc1F)N1CCN(C(=O)C2CC2)CC1 [Olaparib] (partner 8 µM)
Method in brief: as §1

Carboplatin + Bortezomib = compound: C1CC(C1)(C(=O)O)C(=O)O.[NH2-].[NH2-].[Pt+2] [Carboplatin] + CC(C)C[C@H](NC(=O)[C@H](Cc1ccccc1)NC(=O)c1cnccn1)B(O)O [Bortezomib] (partner 0.002 µM)
Method in brief: as §1

MLN4924 + Navitoclax = compound: NS(=O)(=O)OC[C@@H]1C[C@@H](n2ccc3c(N[C@H]4CCc5ccccc54)ncnc32)C[C@@H]1O [MLN4924] + CC1(C)CCC(c2ccc(Cl)cc2)=C(CN2CCN(c3ccc(C(=O)NS(=O)(=O)c4ccc(N[C@H](CCN5CCOCC5)CSc5ccccc5)c(S(=O)(=O)C(F)(F)F)c4)cc3)CC2)C1 [Navitoclax] (partner 0.5 µM)
Method in brief: as §1

**Q.** For UMC-11, which relative viability (MLN4924 + Crizotinib; first compound 0.04 µM) is on record?
**A.** 0.298

**Q.** And the relative viability (MLN4924 + Crizotinib; first compound 0.1265 µM)?
**A.** 0.184

**Q.** What about the relative viability (MLN4924 + Crizotinib; first compound 0.4 µM) of the same cell line?
**A.** 0.234

**Q.** What about the relative viability (MLN4924 + Crizotinib; first compound 1.265 µM) of the same cell line?
**A.** 0.0782

**Q.** And the relative viability (MLN4924 + Crizotinib; first compound 4 µM)?
**A.** 0.0855

**Q.** And the relative viability (Carboplatin + Olaparib; first compound 0.08 µM)?
**A.** 0.72

**Q.** And the relative viability (Carboplatin + Olaparib; first compound 0.253 µM)?
**A.** 0.573

**Q.** And the relative viability (Carboplatin + Olaparib; first compound 0.8 µM)?
**A.** 0.433

**Q.** And the relative viability (Carboplatin + Olaparib; first compound 2.53 µM)?
**A.** 0.381

**Q.** What about the relative viability (Carboplatin + Olaparib; first compound 8 µM) of the same cell line?
**A.** 0.345

**Q.** And the relative viability (Carboplatin + Bortezomib; first compound 0.08 µM)?
**A.** 0.941

**Q.** What about the relative viability (Carboplatin + Bortezomib; first compound 0.253 µM) of the same cell line?
**A.** 0.904

**Q.** And the relative viability (Carboplatin + Bortezomib; first compound 0.8 µM)?
**A.** 0.675

**Q.** And the relative viability (Carboplatin + Bortezomib; first compound 2.53 µM)?
**A.** 0.622

**Q.** And the relative viability (Carboplatin + Bortezomib; first compound 8 µM)?
**A.** 0.382

**Q.** And the relative viability (MLN4924 + Navitoclax; first compound 0.04 µM)?
**A.** 0.198

**Q.** What about the relative viability (MLN4924 + Navitoclax; first compound 0.1265 µM) of the same cell line?
**A.** 0.142

**Q.** What about the relative viability (MLN4924 + Navitoclax; first compound 0.4 µM) of the same cell line?
**A.** 0.167

**Q.** What about the relative viability (MLN4924 + Navitoclax; first compound 1.265 µM) of the same cell line?
**A.** 0.1

**Q.** What about the relative viability (MLN4924 + Navitoclax; first compound 4 µM) of the same cell line?
**A.** 0.112
